Results: patent US20070128217A1 (priority 2003, published 2007)

Assays:
[1] = system: rabbit serum obtained by immunizing a rabbit with the SARS-CoV strain Frankfurt 1; assay type: binding; set-up: Binding of a rabbit serum to linear peptides / Binding of a rabbit serum to looped peptides / Rabbit serum linear peptides / Rabbit serum looped peptides / Binding of a rabbit serum to linear peptides of protein N of SARS-CoV Urbani (Rabbit serum linear peptides) / Binding of a rabbit serum to looped/cyclic peptides of protein N of SARS-CoV Urbani (Rabbit serum looped peptides): unit not given here
[2] = system: control sera (pooled serum of ten healthy LUMC hospital workers; commercial negative donor pooled serum from the Dutch bloodbank); assay type: binding, human; set-up: Binding of Control serum LUMC to linear peptides / Binding of Control serum Blood-bank to linear peptides / Binding of Control serum LUMC to looped peptides / Binding of Control Serum Blood-Bank to Looped peptides / Binding of Control serum LUMC to linear peptides of the protein M of SARS-CoV Urbani / Binding of Control serum Blood-bank to linear peptides of the protein M of SARS-CoV Urbani / Binding of Control serum LUMC to looped peptides of the protein M of SARS-CoV Urbani / Binding of Control Serum Blood-Bank to Looped peptides of the protein M of SARS-CoV Urbani: unit not given here
[3] = system: antibodies in sera from SARS patients (sera 1a, 1b, 2, 6, 37, 62, London, SARS-yellow, SARS-green); assay type: binding, human; set-up: Binding of serum 6 to linear peptides of protein X1 of SARS-CoV Urbani / Binding of serum 37 to linear peptides of protein X1 of SARS-CoV Urbani / Binding of serum 6 to looped/cyclic peptide (PEPSCAN-ELISA) / Binding of serum 37 to looped/cyclic peptide (PEPSCAN-ELISA) / Binding of serum 37 to looped/cyclic peptides of protein X1 of SARS-CoV Urbani / Binding of serum 6 to linear peptides of protein X2 / Binding of serum 37 to linear peptides of protein X2 / Binding of serum 37 to looped/cyclic peptides of protein X2 of SARS-CoV Urbani / Binding of serum 6 to linear peptides of protein M of SARS-CoV Urbani / Binding of serum 37 to linear peptides of protein M of SARS-CoV Urbani / Binding of serum 6 to looped/cyclic peptides of protein M of SARS-CoV Urbani / Binding of serum 37 to looped/cyclic peptides of protein M of SARS-CoV Urbani / Binding of serum 6 to linear peptides of protein X3 of SARS-CoV Urbani / Binding of serum 37 to linear peptides of protein X3 of SARS-CoV Urbani / Binding of serum 37 to looped/cyclic peptides of protein X3 of SARS-CoV Urbani / Binding of serum 6 to linear peptides of protein X4 of SARS-CoV Urbani / Binding of serum 37 to linear peptides of protein X4 of SARS-CoV Urbani / Binding of serum 37 to looped/cyclic peptides of protein X4 of SARS-CoV Urbani / Binding of serum 6 to linear peptides of protein X5 of SARS-CoV Urbani / Binding of serum 37 to linear peptides of protein X5 of SARS-CoV Urbani / Binding of serum 37 to looped/cyclic peptides of protein X5 of SARS-CoV Urbani / Binding of serum 6 to linear peptides of protein N of SARS-CoV Urbani / Binding of serum 37 to linear peptides of protein N of SARS-CoV Urbani / Binding of serum 6 to linear peptide (PEPSCAN-ELISA) / Binding of serum 1a to looped/cyclic peptides of protein N of SARS-CoV Urbani / Binding of serum 1b to looped/cyclic peptides of protein N of SARS-CoV Urbani / Binding of serum 2 to looped/cyclic peptides of protein N of SARS-CoV Urbani / Binding of serum 6 to looped/cyclic peptides of protein N of SARS-CoV Urbani / Binding of serum 37 to looped/cyclic peptides of protein N of SARS-CoV Urbani / Binding of serum 62 to looped/cyclic peptides of protein N of SARS-CoV Urbani / Binding of serum London to looped/cyclic peptides of protein N of SARS-CoV Urbani / Binding of serum SARS-green to looped/cyclic peptides of protein N of SARS-CoV Urbani: unit not given here

LLFVTIYSHLLLVAA
Binding of a rabbit serum to linear peptides [1]: 0.1 | Binding of a rabbit serum to looped peptides [1]: 0.5 | Binding of Control Serum Blood-Bank to Looped peptides [2]: 0.4 | Binding of Control serum Blood-bank to linear peptides [2]: 0.5 | Binding of Control serum LUMC to linear peptides [2]: 0.4 | Binding of Control serum LUMC to looped peptides [2]: 0.6 | Binding of serum 1a to linear peptides of protein X1 of SARS-CoV Urbani [3]: 0.7 | Binding of serum 1a to looped/cyclic peptide (PEPSCAN-ELISA) [3]: 0.4 | Binding of serum 1b to linear peptides of protein X1 of SARS-CoV Urbani [3]: 0.2 | Binding of serum 1b to looped/cyclic peptide (PEPSCAN-ELISA) [3]: 0.3 | Binding of serum 2 to linear peptides of protein X1 of SARS-CoV Urbani [3]: 0.5 | Binding of serum 2 to looped/cyclic peptide (PEPSCAN-ELISA) [3]: 0.3 | Binding of serum 6 to linear peptides of protein X1 of SARS-CoV Urbani [3]: 0.4 | Binding of serum 6 to looped/cyclic peptide (PEPSCAN-ELISA) [3]: 0.2 | Binding of serum 37 to linear peptides of protein X1 of SARS-CoV Urbani [3]: 0.6 | Binding of serum 37 to looped/cyclic peptide (PEPSCAN-ELISA) [3]: 0.4 | Binding of serum 62 to linear peptides of protein X1 of SARS-CoV Urbani [3]: 0.5 | Binding of serum 62 to looped/cyclic peptide (PEPSCAN-ELISA) [3]: 0.5 | Binding of serum London to linear peptides of protein X1 of SARS-CoV Urbani [3]: 0.2 | Binding of serum London to looped/cyclic peptide (PEPSCAN-ELISA) [3]: 0.2 | Binding of serum SARS-green to linear peptides of protein X1 of SARS-CoV Urbani [3]: 0.3 | Binding of serum SARS-green to looped/cyclic peptide (PEPSCAN-ELISA) [3]: 0.2 | Binding of serum SARS-yellow to linear peptides of protein X1 of SARS-CoV Urbani [3]: 0.3 | Binding of serum SARS-yellow to looped/cyclic peptide (PEPSCAN-ELISA) [3]: 0.4

LLKEPCPSGTYEGNS
Rabbit serum linear peptides [1]: 0.3 | Rabbit serum looped peptides [1]: 0.1 | Binding of Control Serum Blood-Bank to Looped peptides [2]: 0.6 | Binding of Control serum Blood-bank to linear peptides [2]: 0.6 | Binding of Control serum LUMC to linear peptides [2]: 0.6 | Binding of Control serum LUMC to looped peptides [2]: 0.8 | Binding of serum 1a to linear peptides of protein X4 of SARS-CoV Urbani [3]: 0.8 | Binding of serum 1a to looped/cyclic peptides of protein X4 of SARS-CoV Urbani [3]: 0.8 | Binding of serum 1b to linear peptides of protein X4 of SARS-CoV Urbani [3]: 0.6 | Binding of serum 1b to looped/cyclic peptides of protein X4 of SARS-CoV Urbani [3]: 0.6 | Binding of serum 2 to linear peptides of protein X4 of SARS-CoV Urbani [3]: 0.3 | Binding of serum 2 to looped/cyclic peptides of protein X4 of SARS-CoV Urbani [3]: 0.6 | Binding of serum 6 to linear peptides of protein X4 of SARS-CoV Urbani [3]: 0.6 | Binding of serum 6 to looped/cyclic peptides of protein X4 of SARS-CoV Urbani [3]: 0.7 | Binding of serum 37 to linear peptides of protein X4 of SARS-CoV Urbani [3]: 0.6 | Binding of serum 37 to looped/cyclic peptides of protein X4 of SARS-CoV Urbani [3]: 0.7 | Binding of serum 62 to linear peptides of protein X4 of SARS-CoV Urbani [3]: 0.8 | Binding of serum 62 to looped/cyclic peptides of protein X4 of SARS-CoV Urbani [3]: 0.5 | Binding of serum London to linear peptides of protein X4 of SARS-CoV Urbani [3]: 0.8 | Binding of serum London to looped/cyclic peptides of protein X4 of SARS-CoV Urbani [3]: 0.3 | Binding of serum SARS-green to linear peptides of protein X4 of SARS-CoV Urbani [3]: 0.5 | Binding of serum SARS-green to looped/cyclic peptides of protein X4 of SARS-CoV Urbani [3]: 0.7 | Binding of serum SARS-yellow to linear peptides of protein X4 of SARS-CoV Urbani [3]: 0.2 | Binding of serum SARS-yellow to looped/cyclic peptides of protein X4 of SARS-CoV Urbani [3]: 0.2

LLNVPLRGTIVTRPL
Rabbit serum linear peptides [1]: 0.4 | Rabbit serum looped peptides [1]: 0.0 | Binding of Control Serum Blood-Bank to Looped peptides of the protein M of SARS-CoV Urbani [2]: 0.9 | Binding of Control serum Blood-bank to linear peptides of the protein M of SARS-CoV Urbani [2]: 0.7 | Binding of Control serum LUMC to linear peptides of the protein M of SARS-CoV Urbani [2]: 0.4 | Binding of Control serum LUMC to looped peptides of the protein M of SARS-CoV Urbani [2]: 0.5 | Binding of serum 1a to linear peptides of protein M of SARS-CoV Urbani [3]: 0.8 | Binding of serum 1b to linear peptides of protein M of SARS-CoV Urbani [3]: 0.5 | Binding of serum 2 to linear peptides of protein M of SARS-CoV Urbani [3]: 0.5 | Binding of serum 6 to linear peptides of protein M of SARS-CoV Urbani [3]: 0.5 | Binding of serum 37 to linear peptides of protein M of SARS-CoV Urbani [3]: 0.6 | Binding of serum 62 to linear peptides of protein M of SARS-CoV Urbani [3]: 0.7 | Binding of serum London to linear peptides of protein M of SARS-CoV Urbani [3]: 0.4 | Binding of serum SARS-green to linear peptides of protein M of SARS-CoV Urbani [3]: 0.3 | Binding of serum SARS-yellow to linear peptides of protein M of SARS-CoV Urbani [3]: 0.1 | Recognition of the peptide by sera of SARS-CoV infected individuals, and form (linear, looped/cyclic) in which it is recognized [3]: recognized in looped/cyclic form

LLQFAYSNRNRFLYI
Rabbit serum linear peptides [1]: 0.2 | Rabbit serum looped peptides [1]: 0.4 | Binding of Control Serum Blood-Bank to Looped peptides of the protein M of SARS-CoV Urbani [2]: 0.5 | Binding of Control serum Blood-bank to linear peptides of the protein M of SARS-CoV Urbani [2]: 0.6 | Binding of Control serum LUMC to linear peptides of the protein M of SARS-CoV Urbani [2]: 0.6 | Binding of Control serum LUMC to looped peptides of the protein M of SARS-CoV Urbani [2]: 0.5 | Binding of serum 1a to linear peptides of protein M of SARS-CoV Urbani [3]: 0.7 | Binding of serum 1a to looped/cyclic peptides of protein M of SARS-CoV Urbani [3]: 0.7 | Binding of serum 1b to linear peptides of protein M of SARS-CoV Urbani [3]: 0.6 | Binding of serum 1b to looped/cyclic peptides of protein M of SARS-CoV Urbani [3]: 0.5 | Binding of serum 2 to linear peptides of protein M of SARS-CoV Urbani [3]: 0.4 | Binding of serum 2 to looped/cyclic peptides of protein M of SARS-CoV Urbani [3]: 0.6 | Binding of serum 6 to linear peptides of protein M of SARS-CoV Urbani [3]: 0.3 | Binding of serum 6 to looped/cyclic peptides of protein M of SARS-CoV Urbani [3]: 0.6 | Binding of serum 37 to linear peptides of protein M of SARS-CoV Urbani [3]: 0.3 | Binding of serum 37 to looped/cyclic peptides of protein M of SARS-CoV Urbani [3]: 0.5 | Binding of serum 62 to linear peptides of protein M of SARS-CoV Urbani [3]: 0.3 | Binding of serum 62 to looped/cyclic peptides of protein M of SARS-CoV Urbani [3]: 0.4 | Binding of serum London to linear peptides of protein M of SARS-CoV Urbani [3]: 0.3 | Binding of serum London to looped/cyclic peptides of protein M of SARS-CoV Urbani [3]: 0.2 | Binding of serum SARS-green to linear peptides of protein M of SARS-CoV Urbani [3]: 0.5 | Binding of serum SARS-green to looped/cyclic peptides of protein M of SARS-CoV Urbani [3]: 0.1 | Binding of serum SARS-yellow to linear peptides of protein M of SARS-CoV Urbani [3]: 0.2 | Binding of serum SARS-yellow to looped/cyclic peptides of protein M of SARS-CoV Urbani [3]: 0.5
